Consider 5 molecules from US7223753B2, “Diazabicyclic biaryl derivatives” (Neurosearch A/S, priority 2002, dated 2007).

Counter-ions that a name gives are not always drawn.

In the experiment the target is T1, α7-subtype of nicotinic receptors (Rattus norvegicus, UniProt Q05941).
T1 construct: Cerebral cortices from male Wistar rats (150–250 g) are homogenised; from tissue; host or cells: rat cerebral cortex membrane homogenate
The experiment in a line: In vitro inhibition of 3H-α-bungarotoxine binding in rat brain. To be noted: rat cerebral cortex homogenate; 3H-α-bungarotoxine 2 nM; 2 hours at 37° C.

T1 sequence (Q05941 23-502): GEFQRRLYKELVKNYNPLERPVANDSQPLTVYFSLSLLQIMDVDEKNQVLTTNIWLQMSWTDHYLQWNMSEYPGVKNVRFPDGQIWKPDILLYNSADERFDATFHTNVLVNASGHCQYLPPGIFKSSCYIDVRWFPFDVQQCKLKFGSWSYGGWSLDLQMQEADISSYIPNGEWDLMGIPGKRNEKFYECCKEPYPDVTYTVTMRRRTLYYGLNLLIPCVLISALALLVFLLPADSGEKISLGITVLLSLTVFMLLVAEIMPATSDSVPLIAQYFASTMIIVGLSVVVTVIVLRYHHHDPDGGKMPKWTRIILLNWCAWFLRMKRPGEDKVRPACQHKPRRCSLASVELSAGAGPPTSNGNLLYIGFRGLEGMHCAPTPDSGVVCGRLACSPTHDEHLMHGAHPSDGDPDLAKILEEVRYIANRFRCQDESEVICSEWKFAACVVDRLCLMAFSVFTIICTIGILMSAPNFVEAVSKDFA

Regarding `c1csc(-c2ccc(N3CCN4CCC3CC4)nn2)c1` [Compound 4, 4-(6-Thien-2-yl-pyridazin-3-yl)-1,4-diazabicyclo[3.2.2]nonane fumaric acid salt], the IC50 (as a rule, the concentration at which inhibition is half-maximal) came out at 44 nM.

Take `c1c[se]c(-c2ccc(N3CCN4CCC3CC4)nn2)c1` [Compound 5, 4-(6-Selenophen-2-yl-pyridazin-3-yl)-1,4-diazabicyclo[3.2.2]nonane fumaric acid salt]: the IC50 was 6.5 nM. In the case of `c1ccc(-c2ccc(N3CCN4CCC3CC4)cc2)cc1` [Compound 34, 4-Biphenyl-4-yl-1,4-diazabicyclo[3.2.2]nonane fumaric acid salt], the half-maximal inhibitory concentration (IC50) stood at 24 nM.

Regarding `c1cc(-c2ccc(N3CCN4CCC3CC4)nn2)co1` [Compound 7, 4-(6-Furan-3-yl-pyridazin-3-yl)-1,4-diazabicyclo[3.2.2]nonane fumaric acid salt], the IC50 amounted to 22 nM. For `c1cc(-c2ccc(N3CCN4CCC3CC4)nn2)cs1` [Compound 1, 4-[6-Thien-3-yl-pyridazin-3-yl]-1,4-diazabicyclo[3.2.2]nonane fumaric acid salt], the half-inhibitory concentration (IC50) amounted to 38 nM.
